Patent publication US20250188092A1, “RIFAMYCIN ANALOGS” (THE REGENTS OF THE UNIVERSITY OF MICHIGAN, priority 2021, published 2025)

System: non-replicating cultures of M. tuberculosis H37Rv transformed with lux ABCDE
Assay: microbe, parasite or virus in culture
Type: cell-based, Mycobacterium tuberculosis
Details: for MIC90 LORA/MABA: ratio of LORA MIC90 to MABA MIC90
[1] = Mycobacterium tuberculosis, H37RV, […], ≥90% reduction in luminescence, read-out: MIC90 LORA

Compound | MIC90 LORA Rel to RMP | MIC90 [1] [µM] | MIC90 LORA/MABA | MIC [1] [µM]
CO[C@H]1/C=C/O[C@@]2(C)Oc3c(C)c(O)c4c(=O)c(c5oc6cc(C=Nc7ccc(N8CCOCC8)cc7)cc(N7CCN(C)CC7)c6nc-5c4c3C2=O)NC(=O)/C(C)=C\C=C\[C@H](C)[C@H](O)[C@@H](C)[C@@H](O)[C@@H](C)[C@H](OC(C)=O)[C@@H]1C [Compound 32, (7S,9E,11S,12R,13S,14R,15R,16R,17S,18S,19E,21Z)-2,15,17-trihydroxy-11-methoxy-3,7,12,14,16,18,22-heptamethyl-32-(4-methylpiperazin-1-yl)-30-{N-[4-(morpholin-4-yl)phenyl]carboximidoyl}-6,23,37-trioxo-8,27,38-trioxa-24,34-diazahexacyclo[23.11.1.1^4,7.0^5,36.0^26,35.0^28,33]octatriaconta-1,3,5(36)9,19,21,25,28,30,32,34-undecaen-13-yl acetate] | 0.45 | 0.118 | 2.5 | –
CO[C@H]1/C=C/O[C@@]2(C)Oc3c(C)c(O)c4c(=O)c(c5oc6cccc(OCCCCN7CCOCC7)c6nc-5c4c3C2=O)NC(=O)/C(C)=C\C=C\[C@H](C)[C@H](O)[C@@H](C)[C@@H](O)[C@@H](C)[C@H](OC(C)=O)[C@@H]1C [Compound 5b, (7S,9E,11S,12R,13S,14R,15R,16R,17S,18S,19E,21Z)-2,15,17-Trihydroxy-11-methoxy-3,7,12,14,16,18,22-heptamethyl-32-[4-(morpholin-4-yl)butoxy]-6,23,37-trioxo-8,27,38-trioxa-24,34-diazahexacyclo[23.11.1.1^4,7.0^5,36.0^26,35.0^28,33]octatriaconta-1(36)2,4,9,19,21,25,28(33)29,31,34-undecaen-13-yl acetate] | 0.15 | – | 2.4 | 0.05
CO[C@H]1/C=C/O[C@@]2(C)Oc3c(C)c(O)c4c(=O)c(c5oc6cc(N7CCN(CC(C)C)CC7)cc(OCc7ccc(CN8CCN(C(=O)CN9CCOCC9)CC8)cc7)c6nc-5c4c3C2=O)NC(=O)/C(C)=C\C=C\[C@H](C)[C@H](O)[C@@H](C)[C@@H](O)[C@@H](C)[C@H](OC(C)=O)[C@@H]1C [Compound 17d, (7S,9E,11S,12R,13S,14R,15R,16R,17S,18S,19E,21Z)-2,15,17-Trihydroxy-11-methoxy-3,7,12,14,16,18,22-heptamethyl-30-[4-(2-methylpropyl)piperazin-1-yl]-32-{[4-({4-[2-(morpholin-4-yl)acetyl]piperazin-1-yl}methyl)phenyl]methoxy}-6,23,37-trioxo-8,27,38-trioxa-24,34-diazahexacyclo[23.11.1.1^4,7.0^5,36.0^26,35.0^28,33]octatriaconta-1(36)2,4,9,19,21,25,28,30,32,34-undecaen-13-yl acetate] | – | < 0.016 | – | –
CO[C@H]1/C=C/O[C@@]2(C)Oc3c(C)c(O)c4c(=O)c(c5oc6cc(C)cc(N7CCN(C(=O)c8ccc9occc9c8)CC7)c6nc-5c4c3C2=O)NC(=O)/C(C)=C\C=C\[C@H](C)[C@H](O)[C@@H](C)[C@@H](O)[C@@H](C)[C@H](OC(C)=O)[C@@H]1C [Compound 30h, (7S,9E,11S,12R,13S,14R,15R,16R,17S,18S,19E,21Z)-32-[4-(1-Benzofuran-5-carbonyl)piperazin-1-yl]-2,15,17-trihydroxy-11-methoxy-3,7,12,14,16,18,22,30-octamethyl-6,23,37-trioxo-8,27,38-trioxa-24,34-diazahexacyclo[23.11.1.1^4,7.0^5,36.0^26,35.0^28,33]octatriaconta-1(36)2,4,9,19,21,25,28,30,32,34-undecaen-13-yl acetate] | 0.20 | 0.042 | 2.2 | –
